Reference: paper PMC12682947, “Identification of New KCNT1‐Epilepsy Drugs by In Silico, Cell, and Drosophila Modeling” (Annals of Neurology, 2025)

Key:
[1] = system: Drosophila epilepsy model; design: method as in PMID 39720593; settings: cited from earlier work
[2] = system: Drosophila mutant KCNT1 lines (G288S, R398Q, R928C); assay: Bang-sensitive behavioral seizure assay, statements for all three Drosophila mutant KCNT1 lines; assay type: in vivo, Drosophila melanogaster; settings: drug in food, 1 nM to 1 μM, each of the three mutant lines
Source text: The Drosophila melanogaster lines carrying the WT human KCNT1 transgene (NM_020822_3) or KCNT1 mutant G288S, R398Q or R928C transgene placed downstream of the yeast UAS promoter, have been described previously.[11] WT or mutant human UAS‐KCNT1 flies were crossed to flies expressing the GAL4 transcriptional activator under the control of the GAD1 promoter (GABAergic driver, Bloomington stock number 51630 P2) to drive expression of KCNT1 in GABAergic neurons, involved in neuronal inhibition.[11]
The bang‐sensitive behavioral assay (also known as the banging assay) was used to test for the presence of a seizure phenotype in Drosophila.[11], [30] Experiments were performed and scored, as previously described,[11] with a minimum of 50 Drosophila tested for each genotype and drug concentration.
Four drugs were selected for in vivo analysis to determine their effects on the seizure phenotypes in transgenic Drosophila lines with human mutant KCNT1 channels. Bepridil, a nonselective KCNT1 inhibitor was included for comparison. Drosophila food with and without drugs was prepared as previously described.[11] All chemicals were obtained from Sigma‐Aldrich (Gillingham, UK) apart from antrafenine hydrochloride (Toronto Research Chemicals, Canada) and regorafenib (USP, Germany).
Drosophila crosses were set up, and the resulting embryos were collected, as previously described.[11] A range of concentrations of each drug dissolved in Drosophila food, between 0.001 μM and 1 μM, were used in the experiments. Multiple replicates were performed for each dosage of the drugs and controls. Controls were vehicle controlled (VC), which was the normal food with just the solvent ethanol present (1 μl/1 ml) in the Drosophila food, and normal food (NF) control where no drug or solvent (ethanol) was added in the Drosophila food.
In all experiments, experimenters were not blinded to variants or treatments, nor were samples randomly assigned to groups. Sample sizes were not calculated in advance and no data were excluded from the analysis. Data were analyzed using GraphPad Prism 9 software (San Diego, CA, USA). All values are reported as mean ± standard error of the mean (SEM). All data passed normality and lognormality Shapiro–Wilk tests, determined by GraphPad Prism 9. In the experiments analyzing the effects of drugs in Drosophila, statistical significance of differences between groups was determined using Brown‐Forsythe and Welch's analysis of variance (ANOVA) tests (Supplementary Table S3), assuming non‐equal SDs, followed by Dunnett's multiple comparisons tests (GraphPad Prism 9). The results of the Dunnett's multiple comparisons tests are shown in Supplementary Table S4, where “N” represents independent trials using independent fly crosses, with the total number of flies for each condition shown in brackets.

[3] = system: Drosophila mutant KCNT1 lines (G288S, R398Q, R928C); design: method as in PMID 38336906; settings: Drosophila models of KCNT1 epilepsy; cited from earlier work

| SMILES | reduction of seizures [1] | further results |
| --- | --- | --- |
| O=C1NC(=O)C(c2ccccc2)(c2ccccc2)N1 [Phenytoin] | approximately 30% |  |
| CC(C)COCC(CN(Cc1ccccc1)c1ccccc1)N1CCCC1 (centres unmarked) [bepridil] |  | effect on seizure activity (in words) [2]: exacerbate the seizure phenotype |
| Nc1nnc(-c2cccc(Cl)c2Cl)c(N)n1 [lamotrigine] | approximately 30% |  |
| C=C[C@H]1C[N@@]2CC[C@H]1C[C@@H]2[C@@H](O)c1ccnc2ccc(OC)cc12 [quinidine] |  | effect on seizure phenotype (in words) [3]: exacerbate the seizure phenotype |
| CCCC(CCC)C(=O)O [valproate] | approximately 30% |  |
